Measurements published in patent US20120046273A1, “COMPOUNDS AND COMPOSITIONS FOR COGNITION-ENHANCEMENT, METHODS OF MAKING, AND METHODS OF TREATING” (MITHRIDION, INC., priority 2009, published 2012).
Positions count from the first letter of the chain named. “Also recorded” adds a separate entry of the source. Where a name gives a salt, the structure may show the parent alone. Read-outs that look alike come from different tables or passages of the source.

How the values were obtained:
[1] = target: T1, human muscarinic M1 receptors (Homo sapiens, UniProt P11229); assay: Inositol phosphate production in huM1/A9L cells (IPOne TR-FRET); type: cell-based; details: for huM1/A9L ED50 relative to CCh: potency relative to carbachol
T1 construct: expressed in transfected cells; host or cells: A9L cells (gift from Professor W Messer)
T1 sequence (P11229 1-460): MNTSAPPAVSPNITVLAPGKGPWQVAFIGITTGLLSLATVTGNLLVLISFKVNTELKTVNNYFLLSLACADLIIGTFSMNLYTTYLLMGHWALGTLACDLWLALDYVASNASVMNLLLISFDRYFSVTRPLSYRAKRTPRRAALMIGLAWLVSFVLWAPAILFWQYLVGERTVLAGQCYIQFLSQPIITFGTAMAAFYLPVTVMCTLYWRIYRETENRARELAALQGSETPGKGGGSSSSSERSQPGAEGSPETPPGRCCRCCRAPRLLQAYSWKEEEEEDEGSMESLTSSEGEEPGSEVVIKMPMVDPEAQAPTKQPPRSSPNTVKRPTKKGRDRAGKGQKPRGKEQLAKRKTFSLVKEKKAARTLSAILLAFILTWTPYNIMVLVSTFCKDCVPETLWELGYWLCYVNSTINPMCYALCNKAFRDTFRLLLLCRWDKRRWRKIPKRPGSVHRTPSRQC
Method: (§1) Muscarinic M1 and M3 agonist activity was evaluated by measuring the stimulation of inositol phosphate (IP) production in the presence of lithium chloride from A9L cells transfected with expression plasmids containing human muscarinic M1 and M3 receptors, respectively. The cell lines were a gift from Professor W Messer, and the methods were as described in Tejada F R et al. J. Med. Chem. 2006; 49: 7518-31 except that the assay was scaled down to run in 384 well plates, and IP was measured in the cell lysates using the non-isotopic IPOne TR-FRET assay (CIS-BIO, Inc).
(§2) Cells were grown to 90% confluence in 384 well hi-base plates (Greiner Bio-One), compounds were added at suitable concentrations in growth medium containing 10 mM LiCL, buffered with an extra 10 mM HEPES (pH7.4), and incubated for 60 minutes at 37° C. Cells were lysed and assayed for IP following the manufacturer's instructions.
(§3) The value for a full agonist is 100%, while partial agonists give values below 100%.

[2] = target: T2, human muscarinic M3 receptors (Homo sapiens, UniProt P20309); assay: Inositol phosphate production in huM3/A9L cells (IPOne TR-FRET); type: cell-based; details: for huM3/A9L ED50 relative to CCh: potency relative to carbachol
T2 construct: expressed in transfected cells; host or cells: A9L cells (gift from Professor W Messer)
T2 sequence (P20309 whole entry): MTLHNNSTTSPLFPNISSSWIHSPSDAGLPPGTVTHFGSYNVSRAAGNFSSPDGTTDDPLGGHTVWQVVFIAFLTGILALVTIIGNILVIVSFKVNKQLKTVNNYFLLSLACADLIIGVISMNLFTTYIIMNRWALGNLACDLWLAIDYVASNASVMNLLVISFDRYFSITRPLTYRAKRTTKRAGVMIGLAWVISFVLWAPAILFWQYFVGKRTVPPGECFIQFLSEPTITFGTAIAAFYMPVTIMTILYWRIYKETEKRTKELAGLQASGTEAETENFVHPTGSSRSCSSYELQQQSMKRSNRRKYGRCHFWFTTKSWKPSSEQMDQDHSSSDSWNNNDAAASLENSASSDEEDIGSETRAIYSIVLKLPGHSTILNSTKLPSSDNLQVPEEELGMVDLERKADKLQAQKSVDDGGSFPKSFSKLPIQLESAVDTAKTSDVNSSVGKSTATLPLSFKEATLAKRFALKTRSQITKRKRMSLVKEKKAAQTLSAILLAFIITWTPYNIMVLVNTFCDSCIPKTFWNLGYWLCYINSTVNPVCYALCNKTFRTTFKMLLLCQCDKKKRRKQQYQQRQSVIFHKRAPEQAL
Method: as §1, §2, §3

human FMO1 Supersomes = target: T3, human FMO1 Supersomes (Homo sapiens, UniProt Q01740); assay: Metabolism by flavin monoxygenase 1 (FMO1) Supersomes; type: in vitro ADME
T3 construct: purchased BD Biosciences 456241
T3 sequence (Q01740 1-532): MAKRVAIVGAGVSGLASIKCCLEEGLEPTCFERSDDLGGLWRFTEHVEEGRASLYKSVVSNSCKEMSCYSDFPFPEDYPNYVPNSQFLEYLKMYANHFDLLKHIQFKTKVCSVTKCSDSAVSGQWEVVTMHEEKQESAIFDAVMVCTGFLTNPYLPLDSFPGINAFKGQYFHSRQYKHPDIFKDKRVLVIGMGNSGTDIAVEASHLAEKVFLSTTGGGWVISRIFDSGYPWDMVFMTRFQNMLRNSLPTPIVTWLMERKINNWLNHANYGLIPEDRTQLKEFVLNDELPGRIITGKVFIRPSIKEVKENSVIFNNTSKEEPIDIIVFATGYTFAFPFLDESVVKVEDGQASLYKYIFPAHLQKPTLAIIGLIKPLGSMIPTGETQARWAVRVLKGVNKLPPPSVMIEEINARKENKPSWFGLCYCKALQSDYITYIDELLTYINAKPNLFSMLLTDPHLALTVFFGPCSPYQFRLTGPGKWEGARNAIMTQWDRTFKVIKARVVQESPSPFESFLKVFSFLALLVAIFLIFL
Method: […] Aliquots were removed every 10 minutes, and 1% formic acid was added to halt the reaction. Samples were centrifuged, filtered through 0.2 micron spinfilter and the amount of each compound in the supernatants was quantitated using LC/MS/MS.

[3] = test system: salivary gland inositol phosphate signaling pathway; assay: In vivo tissue inositol phosphate signaling pathway activation, salivary gland; set-up: species or system rat; details: 1 mg/kg of 82
Method: (§4) Experimental compounds or drug substances were administered using standard techniques to Long Evans Hooded rats weighing 225 to 350 grams, and which had been pretreated with a subcutaneous injection of lithium chloride at a suitable dose between 3 and 10 mmoles per kg. At suitable times the animals were briefly anesthetized using 5% isoflurane and euthanized by decapitation. The brains and submaxillary salivary glands were rapidly dissected out, and the hippocampuses were dissected from the brains. The dissected tissues were homogenized in a suitable volume of ice-cold phosphate-buffered saline containing 10 mM lithium chloride, pH7.4, using a tissue homogenizer, and used immediately or frozen in aliquots at −80degC. for future use. The concentration of inositol-1-phosphate was determined in the homogenates using the IPOne TR-FRET assay (CisBio cat no 621PAPEB), following the manufacturer's instruction

[4] = test system: hippocampal inositol phosphate signaling pathway; assay: In vivo tissue inositol phosphate signaling pathway activation, hippocampus; set-up: species or system rat; details: 1 mg/kg of 82; NMS 0.1 mg/kg
Method: as §4

anesthetized normal rats = assay: In vivo measurement of salivation; set-up: species or system rat
Method: Suitable doses of test compounds or drug substances were administered using standard techniques to Long Evans Hooded rats weighing 225 to 350 grams, or CD-1 mice weighing 30 to 50 grams, which had been anesthetized using 2-3.5%% of isoflurane in oxygen. The animals were placed slightly head-down on an inclined, heated ramp. Rectal temperature was monitored using a thermocouple and the temperature of the heating pad was adjusted manually to maintain normal body temperature. Saliva was collected from the mouth by absorption onto pre-weighed slips of filter paper. The filter paper was changed periodically and the amount of saliva was measured by weighing the filter paper slips

anesthetized rats = assay: Salivation on iontophoretic transdermal delivery of agonist and antagonist from one patch; type: in vivo, rat; details: patch with 1 mg of 82 plus 0.01mg antagonist
Method: Experimental compounds and drug substances were delivered transdermally in rats using iontophoresis as follows. The fur was shaved from the backs of Long Evans Hooded rats weighing 225 to 325 grams, using electric clippers. Experimental compounds and drug substances were formulated at suitable concentrations an aqueous mixture of the following composition:
The polyvinyl alcohol/water was heated to 95 degC. until it became clear, then the other constituents were added and mixed well. The mixture was introduced into suitable molds containing a disc-shaped cavity 2.2 cm diameter and 2.2 mm deep. Molds may be fabricated using two glass sheets separated by a silicone rubber sheet with suitable sized cavities and filling ports cut-outs. The molds were subject to 3 freeze-thaw cycles at −80degC. and 20degC. until a firm cryogel was obtained. The gels were separated from the molds and trimmed into a circular shape. The gel was placed in a silicone rubber casing with one face in contact with a circular silver foil anodic electrode (22 mm dia/250 microns thick), and the assembly was placed on the shaved skin of the rat such that the other face was in contact with the skin on one side of the back of the rat. The rubber casing formed a seal over and around the gel/electrode assembly. […] This was placed on the other side of the shaved back of the rat, the edges of the gel discs being about 20 mm apart at their nearest point. A DC voltage was applied across the two patches from a constant-current DC power supply and the voltage adjusted to obtain the desired current, such that the skin of the animal completed the electrical circuit.
The devices were placed on shaved backs of anesthetized rats and salivation was measured.
The animals were placed slightly head-down on an inclined, heated ramp. Rectal temperature was monitored using a thermocouple and the temperature of the heating pad was adjusted manually to maintain normal body temperature. Saliva was collected from the mouth by absorption onto pre-weighed slips of filter paper. The filter paper was changed periodically and the amount of saliva was measured by weighing the filter paper slips

rat M1 receptors = target: T4, rat M1 receptors (Rattus norvegicus, UniProt P08482); assay: PI turnover (inositol phosphate production) in M1-CHO cells; type: cell-based; details: relative to mean Smax for carbachol (100.0)
T4 construct: host or cells: Chinese Hamster Ovary cells (M1-CHO)
T4 sequence (P08482 1-460): T1 sequence (P11229 1-460) with A5V, T254S, P309S, R320K, A337G, I413V
Method: (§5) The medium was changed to 70 μL/well of inositol-free DMEM containing 2 mM glutamine, 10% FBS and 10 μCi/ml of [3H]-inositol (PE:cat # NET114A250UC), incubated overnight as above, then 100 μL of a solution of the test compound in HBSS containing 10 mM LiCl and 20 mM HEPES, pH 7.4 was added, incubation was continued for 60 min under the above conditions, and the test was stopped by removing the test compound and replacing with 100 μL of 50 mM formic acid in water at 4° C.

rat M3 receptors = target: T5, rat M3 receptors (Rattus norvegicus, UniProt P08483); assay: PI turnover (inositol phosphate production) in M3-CHO cells; type: cell-based; details: relative to mean Smax for carbachol (100.0)
T5 construct: host or cells: Chinese Hamster Ovary cells (M3-CHO)
T5 sequence (P08483 whole entry): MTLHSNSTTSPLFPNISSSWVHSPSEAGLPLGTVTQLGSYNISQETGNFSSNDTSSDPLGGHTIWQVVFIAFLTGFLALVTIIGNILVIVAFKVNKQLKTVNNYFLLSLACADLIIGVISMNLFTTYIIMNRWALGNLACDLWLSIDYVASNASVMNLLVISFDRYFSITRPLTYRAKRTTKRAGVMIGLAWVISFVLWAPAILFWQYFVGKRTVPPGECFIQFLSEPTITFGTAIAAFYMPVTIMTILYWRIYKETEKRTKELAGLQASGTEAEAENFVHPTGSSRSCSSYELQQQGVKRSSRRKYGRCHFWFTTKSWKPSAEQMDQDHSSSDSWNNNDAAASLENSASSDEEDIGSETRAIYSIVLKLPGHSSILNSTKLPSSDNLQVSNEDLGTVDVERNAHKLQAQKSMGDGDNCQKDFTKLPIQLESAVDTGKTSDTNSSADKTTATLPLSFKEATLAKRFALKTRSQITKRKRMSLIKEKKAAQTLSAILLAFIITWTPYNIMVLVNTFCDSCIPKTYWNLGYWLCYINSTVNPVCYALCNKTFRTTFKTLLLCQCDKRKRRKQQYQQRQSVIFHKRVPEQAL
Method: as §5

[5] = test system: pooled male Sprague-Dawley rat liver microsomes; assay: Metabolism by rat liver microsomes; type: in vitro ADME; details: 6 hours incubation
Method: (§6) Compounds were incubated with pooled male Sprague-Dawley rat liver microsomes (BD Biosciences, #452501) and an NADP-regenerating system in a phosphate buffer (pH 7.4) for a total of 6 hours. Aliquots were removed every 2 hours, and 1% formic acid was added to halt the reaction. Samples were centrifuged, filtered through 0.2 micron spinfilter and the amount of each compound in the supernatants was quantitated using LC/MS/MS.

[6] = test system: pooled male human liver microsomes; assay: Metabolism by human liver microsomes; type: in vitro ADME; details: 6 hours incubation
Method: as §6, with “human” for “Sprague-Dawley rat”, “#452172)” for “#452501)”

[7] = percentage of maximal stimulation by carbachol

Cc1noc(C2CN3CCC2CC3)n1 (stereo not drawn) [Compound 127, 3-methyl-5-(quinuclidin-3-yl)-1,2,4-oxadiazole, reference compound]
selectivity between M1 and M3 receptors [1]: essentially non-selective | huM1/A9L Smax [1, 7]: 50-100% | huM1/A9L ED50 relative to CCh [1]: ++ (potency >10x CCh) | huM3/A9L Smax [2, 7]: 50-100% | huM3/A9L ED50 relative to CCh [2]: ++ (potency >10x CCh) | extent of metabolism in FMO Supersomes (human FMO1 Supersomes): almost completely metabolized | PAMPA (? × 106) (PAMPA test): 3.02 ? × 106 | rate of crossing the lipid layer in the PAMPA test (PAMPA test): significantly better

C[N+]1(C)[C@@H]2C[C@@H](OC(=O)[C@H](CO)c3ccccc3)C[C@H]1[C@@H]1O[C@@H]12 [NMS, N-methylscopolamine]
block of increase in salivary gland inositol phosphate caused by 82 ([3]; NMS 0.003 mg/kg): some breakthrough activation | block of increase in salivary gland inositol phosphate caused by 82 ([3]; NMS 0.03 mg/kg to 0.01 mg/kg): nearly as effective as 0.1 mg/kg | block of increase in salivary gland inositol phosphate caused by 82 ([3]; antagonist 0.1 mg/kg NMS): completely block | inhibition of increase in inositol phosphate in the hippocampus caused by 82 [4]: does not inhibit | decrease in salivation caused by 82 (anesthetized normal rats; 0.3 mg/kg of 82): dose-dependent decrease in salivation | reduction in salivation caused by MCD-386 (anesthetized normal rats; 1 mg/kg dose of MCD-386): dose-dependent reduction | reduction of salivation caused by transdermal iontophoretic delivery of 82 (anesthetized rats): greatly reduced

[2H]C([2H])([2H])Cc1noc(C2CN=CNC2)n1 (stereo not drawn) [Compound 78, 3-(2,2,2-d3-Ethyl)-5-(1,4,5,6-tetrahydropyrimidin-5-yl)-1,2,4-oxadiazole hydrochloride]
M1/CHO PI turnover Relative Mean Smax (rat M1 receptors): 48.9 | M3/CHO PI turnover Relative Mean Smax (rat M3 receptors): 28.8

Clc1cccc(Cl)c1N=C1NCCN1 [Clonidine, reference compound]
PAMPA (? × 106): 7.95 ? × 106

Cc1noc(C2=CCCN(C)C2)n1 [Compound 126, 3-methyl-5-(1-methyl-1,2,5,6-tetrahydropyridin-3-yl)-1,2,4-oxadiazole, reference compound]
potency and efficacy at M1 muscarinic receptors [1]: reasonable potency and efficacy | selectivity between M1 and M3 receptors [1]: some selectivity for M1 versus M3 receptors | huM1/A9L ED50 relative to CCh [1]: + (potency 2-10x CCh) | huM3/A9L ED50 relative to CCh [2]: + (potency 2-10x CCh) | extent of metabolism in FMO Supersomes (human FMO1 Supersomes): almost completely metabolized; also recorded: nearly completely metabolized | extent of metabolism in rat liver microsomes [5]: nearly completely metabolized | extent of metabolism in human liver microsomes [6]: nearly completely metabolized | PAMPA (? × 106) (PAMPA test): 12.75 ? × 106 | rate of crossing the lipid layer in the PAMPA test (PAMPA test): slightly better
